This is an account of results in patent US20240051936A1, “ISOINDOLINONE COMPOUNDS” (Monte Rosa Therapeutics, Inc., priority 2021, published 2024).

Where two headings read alike, the source gives them in different places.

Assay [1] addresses CRBN (Homo sapiens (Human), UniProt Q96SW2). Kind of assay: HTRF binding of compounds to CRBN. The conditions noted are these: read-out: HTRF Class (HTRF IC50, Cereblon binding). (In TR-FRET formats the signal depends on donor and acceptor labels being close together.)
Assay [2] concerns the target GSPT1 (Homo sapiens (Human), UniProt P15170+Q96SW2). As to the kind of experiment: Immunofluorescence assay for GSPT1 degradation in CAL-Si cells. The assay is classed as cell-based. The procedure, abridged:
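CAL-Si cells on fibronectin were treated for 6 h with serial dilutions (30 μM to 0.1 nM). After fixation, GSPT1 was immunostained and imaged by high-content analysis, with DAPI/actin cell segmentation giving mean GSPT1 intensity per cell. DC50 came from nonlinear regression after normalization to controls.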

In assay [3] the target is Full length wild-type cereblon CRBN (Homo sapiens (Human), UniProt Q96SW2). As to the kind of experiment: Fluorescence polarization (FP) assay, cereblon binding. Summed up:
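Full-length wild-type CRBN (80.0 nM) preincubated 30 min RT with compound (300–0.937 or 3000–9.3 nM, 12 points) in 20 mM HEPES pH 8.0, 150 NaCl, 0.5 mM TCEP, 0.05% Tween 20. Probe added at 5 nM final; FP read after 12 h (ex 590/em 675 nm), normalized to DMSO for IC50.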

The mark [4] stands for this setting: CAL-Si cells, compounds with code A, read-out: DC50 value code.
The mark [5] stands for this setting: CAL-Si cells, treated 6 hours, read-out: Code, activity for GSPT1 degradation (DC50).
Setting [6] is: wild-type CRBN 80.0 nM, probe 5 nM, FP measured after 12 hours, read-out: rFP IC50.
[7] abbreviates: Table 4, read-out: IF Class (ability for GSPT1 degradation).
Setting [8] is: cereblon binding, bound, read-out: IC50 value.

GSPT1, sequence (P15170 whole entry): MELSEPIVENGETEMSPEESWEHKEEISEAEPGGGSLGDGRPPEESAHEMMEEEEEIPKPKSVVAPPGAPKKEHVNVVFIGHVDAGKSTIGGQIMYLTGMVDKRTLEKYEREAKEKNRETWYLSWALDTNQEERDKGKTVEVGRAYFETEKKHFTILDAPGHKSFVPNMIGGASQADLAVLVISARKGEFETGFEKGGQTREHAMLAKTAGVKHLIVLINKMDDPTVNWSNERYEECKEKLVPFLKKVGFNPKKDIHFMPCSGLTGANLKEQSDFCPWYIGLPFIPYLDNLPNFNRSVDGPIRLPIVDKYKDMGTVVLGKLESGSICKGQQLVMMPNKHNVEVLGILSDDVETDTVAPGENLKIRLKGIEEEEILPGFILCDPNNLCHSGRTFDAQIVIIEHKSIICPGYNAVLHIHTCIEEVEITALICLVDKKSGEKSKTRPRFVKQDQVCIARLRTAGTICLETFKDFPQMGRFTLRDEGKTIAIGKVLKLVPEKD
GSPT1, sequence (Q96SW2 whole entry): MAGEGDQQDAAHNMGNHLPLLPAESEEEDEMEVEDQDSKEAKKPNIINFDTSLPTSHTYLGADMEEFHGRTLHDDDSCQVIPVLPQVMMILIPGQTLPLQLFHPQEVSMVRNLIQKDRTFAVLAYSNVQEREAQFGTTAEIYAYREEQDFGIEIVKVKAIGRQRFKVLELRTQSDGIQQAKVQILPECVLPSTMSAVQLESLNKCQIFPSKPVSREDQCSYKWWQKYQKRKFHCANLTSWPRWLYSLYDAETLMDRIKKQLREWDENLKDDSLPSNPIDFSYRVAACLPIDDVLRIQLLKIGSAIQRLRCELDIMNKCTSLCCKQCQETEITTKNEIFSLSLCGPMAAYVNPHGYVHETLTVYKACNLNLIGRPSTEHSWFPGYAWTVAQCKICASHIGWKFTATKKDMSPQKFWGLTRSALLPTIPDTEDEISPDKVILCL
GSPT1, sequence (Q16531 whole entry partner): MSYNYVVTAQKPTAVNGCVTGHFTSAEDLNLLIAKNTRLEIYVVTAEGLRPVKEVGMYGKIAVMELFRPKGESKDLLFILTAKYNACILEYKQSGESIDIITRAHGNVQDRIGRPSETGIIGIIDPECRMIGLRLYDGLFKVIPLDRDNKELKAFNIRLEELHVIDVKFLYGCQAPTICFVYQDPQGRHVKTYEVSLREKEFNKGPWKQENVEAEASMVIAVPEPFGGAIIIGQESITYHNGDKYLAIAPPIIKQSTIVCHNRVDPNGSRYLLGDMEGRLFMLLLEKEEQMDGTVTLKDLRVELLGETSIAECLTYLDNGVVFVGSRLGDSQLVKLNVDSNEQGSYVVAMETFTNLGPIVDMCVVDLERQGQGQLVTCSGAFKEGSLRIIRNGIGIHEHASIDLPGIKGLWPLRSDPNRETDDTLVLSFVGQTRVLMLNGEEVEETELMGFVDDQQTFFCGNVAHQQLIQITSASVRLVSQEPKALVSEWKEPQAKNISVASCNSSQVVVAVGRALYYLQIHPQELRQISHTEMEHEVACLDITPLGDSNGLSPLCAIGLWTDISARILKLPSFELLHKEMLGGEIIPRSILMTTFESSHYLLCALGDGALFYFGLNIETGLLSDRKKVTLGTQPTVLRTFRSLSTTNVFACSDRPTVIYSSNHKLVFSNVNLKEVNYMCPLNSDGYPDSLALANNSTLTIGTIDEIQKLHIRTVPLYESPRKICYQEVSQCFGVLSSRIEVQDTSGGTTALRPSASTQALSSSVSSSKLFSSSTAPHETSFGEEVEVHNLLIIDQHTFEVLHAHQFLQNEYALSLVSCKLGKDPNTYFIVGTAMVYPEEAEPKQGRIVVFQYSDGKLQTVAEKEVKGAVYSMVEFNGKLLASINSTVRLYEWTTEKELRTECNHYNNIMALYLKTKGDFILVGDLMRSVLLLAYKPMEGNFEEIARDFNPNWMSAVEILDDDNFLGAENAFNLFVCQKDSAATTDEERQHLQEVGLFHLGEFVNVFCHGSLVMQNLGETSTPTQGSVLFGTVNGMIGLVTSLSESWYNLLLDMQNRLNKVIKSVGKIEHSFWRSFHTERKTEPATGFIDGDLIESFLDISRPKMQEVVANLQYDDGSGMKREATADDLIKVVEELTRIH
CRBN, sequence (Q96SW2 whole entry, species assumed): as the sequence (Q96SW2 whole entry) above
Full length wild-type cereblon CRBN, sequence (Q96SW2 whole entry): as above

As for `Cc1ccc(NC(=O)OCc2ccc3c(c2F)C(=O)N(C2CCC(=O)NC2=O)C3)cc1Cl` (stereo not drawn) [Compound 71, (2-(2,6-dioxopiperidin-3-yl)-4-fluoro-3-oxoisoindolin-5-yl)methyl(3-chloro-4-methylphenyl)carbamate], the results for the IC50 in assay [1] and in assay [3] (setting [6]) were 0.1 to 1 µM and greater than 1.9 µM, respectively. Besides, the DC50 in assay [2] (setting [4]) and in assay [2] (setting [5]) was less than 0.03 µM each time.

For `CC1(c2ccc(NC(=O)OCc3cc(F)c4c(c3)C(=O)N(C3CCC(=O)NC3=O)C4)cn2)CC1` (stereo not drawn) [Compound 75, (2-(2,6-dioxopiperidin-3-yl)-7-fluoro-3-oxoisoindolin-5-yl)methyl(6-(1-methylcyclopropyl)pyridin-3-yl)carbamate], the IC50 (usually the concentration needed to halve the response being measured) in assay [1] fell in the range of 0.1 to 1 µM. In addition, in assay [2] (setting [7]), the DC50 was less than 0.03 µM.

As to `Cc1ccc(NC(=O)OCc2ccc3c(c2Cl)C(=O)N(C2CCC(=O)NC2=O)C3)cc1Cl` (stereo not drawn) [Compound 72, (4-chloro-2-(2,6-dioxopiperidin-3-yl)-3-oxoisoindolin-5-yl)methyl(3-chloro-4-methylphenyl) carbamate], the IC50 in assay [1] was greater than 1 µM. In addition, in assay [2] (setting [7]), the DC50 is greater than 0.3 µM.

Turning to `Cc1ccc(NC(=O)OCc2cc(F)c3c(c2)C(=O)N(C2CCC(=O)NC2=O)C3)cc1Cl` (stereo not drawn) [Compound 3, (2-(2,6-dioxopiperidin-3-yl)-7-fluoro-3-oxoisoindolin-5-yl)methyl(3-chloro-4-methylphenyl)carbamate], the DC50 in assay [2] (setting [5]) was in the range of 0.03 to 0.3 µM. Also, in assay [3] (setting [6]), the IC50 was greater than 1.9 µM.

As for `Cc1ccc(NC(=O)OCc2cc(Br)c3c(c2)C(=O)N(C2CCC(=O)NC2=O)C3)cc1Cl` (stereo not drawn) [Compound 1, (7-bromo-2-(2,6-dioxopiperidin-3-yl)-3-oxoisoindolin-5-yl)methyl(3-chloro-4-methylphenyl)carbamate], in assay [2] (setting [5]), the DC50 was in the range of 0.03 to 0.3 µM. Besides, the half-maximal inhibitory concentration (IC50) in assay [3] (setting [6]) was greater than 1.9 µM.

With `O=C1CCC(N2Cc3c(F)cc(COC(=O)Nc4ccc(-c5ccccc5F)nc4)cc3C2=O)C(=O)N1` (stereo not drawn) [Compound 18, (2-(2,6-dioxopiperidin-3-yl)-7-fluoro-3-oxoisoindolin-5-yl)methyl(6-(2-fluorophenyl)pyridin-3-yl)carbamate], the DC50 in assay [2] (setting [4]) and in assay [2] (setting [5]) was less than 0.03 µM throughout. In addition, the results for the IC50 in assay [3] (setting [8]) and in assay [3] (setting [6]) were less than 0.6 µM and 1.2 to 1.9 µM, respectively.

On to `COc1cc(COC(=O)Nc2ccc(F)c(Cl)c2)cc2c1CN(C1CCC(=O)NC1=O)C2=O` (stereo not drawn) [Compound 51, (2-(2,6-dioxopiperidin-3-yl)-7-methoxy-3-oxoisoindolin-5-yl)methyl(3-chloro-4-fluorophenyl)carbamate], for which, in assay [2] (setting [5]), the DC50 was in the range of 0.03 to 0.3 µM. Besides, the values for the IC50 in assay [3] (setting [8]) and in assay [3] (setting [6]) were less than 0.6 µM and 0.6 to 1.2 µM, respectively.

As for `CC1CCCCN1c1ccc(NC(=O)OCc2cc(F)c3c(c2)C(=O)N(C2CCC(=O)NC2=O)C3)cn1` (stereo not drawn) [Compound 16, (2-(2,6-dioxopiperidin-3-yl)-7-fluoro-3-oxoisoindolin-5-yl)methyl (6-(2-methylpiperidin-1-yl)pyridin-3-yl)carbamate], the DC50 in assay [2] (setting [4]) and in assay [2] (setting [5]) was less than 0.03 µM each time. Besides, the IC50 in assay [3] (setting [8]) was less than 0.6 µM; in assay [3] (setting [6]) it was 0.6 to 1.2 µM.

With `COc1cc(COC(=O)Nc2ccc(-c3ccccc3F)nc2)cc2c1CN(C1CCC(=O)NC1=O)C2=O` (stereo not drawn) [Compound 36, (2-(2,6-dioxopiperidin-3-yl)-7-methoxy-3-oxoisoindolin-5-yl)methyl (6-(2-fluorophenyl)pyridin-3-yl)carbamate], the DC50 in assay [2] (setting [4]) and in assay [2] (setting [5]) was less than 0.03 µM each time. Moreover, the 50% inhibitory concentration (IC50) in assay [3] (setting [8]) was less than 0.6 µM; in assay [3] (setting [6]), 1.2 to 1.9 µM.
